Test results from patent US11351130B2, “Prevention and reversal of inflammation induced DNA damage” (Indiana University Research and Technology Corporation, priority 2017, dated 2022).
pIC50: −log10 of the molar value.

Experiments:
CAF19 cells = assay: Tumor and CAF 3D co-cultures, CAFs; format: cell-based, human; conditions: co-culture with tumor cells, 12 days in culture
Description: (§1) Patient-derived tumor cells and CAF19 cells were a kind gift from Dr. Anirban Maitra (The Johns Hopkins University M.D. Anderson Cancer Center) (Jones et al., 2008). All cell lines were authenticated via STR analysis (IDEXX BioResearch) and checked routinely for mycoplasma contamination. Ultra low attachment 96-well plates (Corning Inc., Life Sciences) were used to generate 3-dimensional tumor spheroids in the presence and absence of CAFs, as described previously (Sempere et al., 2011; Arpin, 2015). TdTomato-labeled PDAC cells and EGFP-labeled CAFs are resuspended in colorless DMEM media containing 3% Reduced Growth Factor Matrigel (BD Biosciences) and 5% FBS at a cell ratio of 1:4 (tumor:CAF) and fed on days 4 and 8 following plating. Both cell populations are quantitated for intensity and area via Thermo ArrayScan at day 12 of co-culture.

[1] = test system: Pa03C patient-derived PDAC cells; assay: Tumor and CAF 3D co-cultures, tumor cells; format: cell-based, human; conditions: tumor alone or co-cultured with CAFs, 12 days in culture, vs vehicle control
Description: as §1

APE1 [2] = biological target: T1, APE1 (Homo sapiens, UniProt P27695); assay: AP endonuclease DNA repair assay; format: biochemical; conditions: APX2009 in the nanomolar range
Experimental: Inhibition or enhancement of APE1 DNA repair endonuclease activity was performed as previously described (Bapat et al., 2010). The APE1 repair activity assay was performed in a plate assay using two annealed oligonucleotides (5′-6-FAM-GCCCCC*[…]-3′ (SEQ ID NO:3) and 3′-Q-[…]-5′ (SEQ ID NO:4)) containing a quencher on one strand and a fluorescent 6-FAM label with tetrahydrofuran as an AP site mimic. Oligo cleavage at the AP mimic site results in 6-FAM release and detection. The fluorescence was read at five, one-minute intervals using a Tecan Ultra plate reader (Chemical Genomics Core, Indiana University School of Medicine). The rate of the reaction was used to determine the change in APE1 repair activity as compared to the vehicle control.

APE1 [3] = biological target: T1, APE1; assay: redox APE1 electrophoretic mobility shift assay (EMSA); format: biochemical; set-up: Purified APE1 was reduced with 1.0 mM DTT for 10 minutes; conditions: read-out: redox inhibition IC50
Experimental: EMSAs were performed as described (Luo et al., 2012). Purified APE1 was reduced with 1.0 mM DTT for 10 minutes and diluted to a final concentration of 0.006 mM with 0.02 mM DTT in PBS. Reduced APE1 was added to EMSA reaction buffer (10 mM Tris (pH 7.5), 50 mM NaCl, 1 mM MgCl2, 1 mM EDTA, 5% [vol/vol] glycerol) with […] 0.007 mM protein mixture (1:1) of purified truncated c-Jun and c-Fos proteins containing DNA-binding domain and leucine zipper and incubated for 30 minutes at room temperature. The EMSA assay was performed as previously described (Luo et al., 2008; Nyland et al., 2010; Kelley et al., 2011; Luo et al., 2012).

[4] = test system: sensory neuronal cultures; assay: Neuronal cell viability (trypan blue exclusion); format: cell-based; conditions: for effect on cisplatin-induced cell death: 20 μM for 48 hours prior to and throughout the cisplatin treatment (24 hours)
Experimental: (§2) Primary cultures of sensory neurons were harvested and maintained as previously described (Vasko et al., 2005). Briefly, adult male Sprague-Dawley rats (150-175 g; Harlan, Indianapolis, Ind.) were euthanized by CO2 asphyxiation and dorsal root ganglia (DRG) dissected from all spinal levels, transferred to into a collagenase solution (1 mg/ml), incubated for 1 hour at 37° C., then dissociated by mechanical agitation. Approximately 30,000 cells or 60,000 cells were plated into each well of 12-well or 6-well culture plates, respectively. All culture dishes were precoated with poly-D-lysine and laminin. Cells were maintained in F-12 media supplemented with 10% horse serum, 2 mM glutamine, 100 μg/ml Normocin™, 50 μg/ml penicillin, 50 μg/ml streptomycin, 50 μM 5-fluoro-2′-deoxyuridine (Invitrogen), 150 μM uridine, and 30 ng/ml of NGF in 3% CO2 at 37° C. Growth medium was changed every other day. Experiments were performed after cells were maintained in culture for 12-14 days.
Sensory neuronal culture trypan blue exclusion analysis was performed as previously described (Vasko et al., 2011). Cells were detached by adding a 0.05% trypsin-EDTA solution and media to each well. An equal volume of 0.4% (w/v) trypan blue in PBS was added to the cell suspension and the numbers of living cells (i.e., those that exclude the dye) were counted under a phase contrast microscope using a hemacytometer. Percent survival was calculated as the percent of live cells divided by the total cell number (including dead and live cells).

NFκB = assay: NF-κB luciferase reporter transactivation assay; format: cell-based; conditions: read-out: inhibition of NFκB binding to the reporter construct, IC50
Experimental: Reporter assays were performed as previously described (Georgiadis et al., 2008; Kelley et al., 2011; Cardoso et al., 2012b; Luo et al., 2012). Cells were transfected with NF-κB-Luciferase construct containing an NF-κB-response promoter and driving the expression of a luciferase gene and a Renilla luciferase control reporter vector pRL-CMV. After a 24-hour transfection period, cells were lysed, and Firefly and Renilla luciferase activities were assayed using Renilla luciferase activity for normalization. All of the transfection experiments were performed in triplicate and repeated at least three times in independent experiments. Data are expressed as mean±standard error from a representative experiment, and Student's t tests were performed.

[5] = P450 metabolism analysis using human microsomes; format: in vitro ADME; conditions: human
Experimental: (§3) PK studies were performed in the IU Simon Cancer Center Clinical Pharmacology Analytical Core (CPAC), as previously described for E3330 (Fishel et al., 2011) and standards for the compounds used. P450 metabolism studies using human microsomes were also performed in CPAC directed by Dr. David Jones.

human microsomes = assay: P450 metabolism analysis using human microsomes; format: in vitro ADME; conditions: vs E3330
Experimental: as §3

Pharmacokinetics (PK) = conditions: in vivo
Experimental: as §3

[6] = test system: sensory neuronal cultures; assay: phospho-H2AX immunoblotting in sensory neuronal cultures (Example 3); format: cell-based, rat; conditions: for effect on cisplatin-induced pH2AX levels (DNA damage): 20 μM for 48 hours prior to and throughout exposure to 10 μM cisplatin
Experimental: as §2
Immunoblotting was performed as previously described (Kelley et al., 2014). Briefly, cells were lysed in RIPA buffer (Santa Cruz Biotechnology; Santa Cruz, Calif., USA) and protein was quantified using the Lowey assay. Proteins were separated by electrophoresis on a 4-12% SDS-polyacrylamide gel. The gel was transferred to a PVDF membrane and incubated overnight at 4° C. in Tris-buffered saline containing 0.1% Tween-20 (TBST) and 5% nonfat dry milk while gently agitating. Mouse monoclonal antihuman Ape1 antibodies (1:500), mouse monoclonal anti-phospho H2AX antibodies (1:1000), or (3-Actin monoclonal antibody (1:1000) were added to the blocking solution and incubated overnight at room temperature while gently agitating. Antibody binding was detected following appropriate secondary antibody methods using chemiluminescence. The density of the bands was measured using QUALITYONE® software from Bio-Rad (Hercules, Calif.) and data expressed as density normalized to actin.

[7] = test system: sensory neurons in culture; format: cell-based, rat; conditions: for effect on cisplatin-induced reduction in capsaicin-evoked CGRP release: 72 hour treatment, 10 μM cisplatin
Experimental: as §2
For release experiments, cell cultures were washed with HEPES buffer consisting of (in mM) 25 HEPES, 135 NaCl, 3.5 KCl, 2.5 CaCl2, 1 MgCl2, 3.3 D-glucose, and 0.1% bovine serum albumin, pH 7.4 and maintained at 37° C. They then were incubated for successive 10-minute intervals with 0.4 ml of HEPES buffer alone (basal release), with buffer containing 30 nM capsaicin, then with buffer alone (to assess return to basal release). After each incubation, the buffer was removed and the amount of immunoreactive calcitonin-gene related peptide (CGRP) in each sample was measured using radioimmunoassay (RIA) as previously described (Chen et al., 1996). At the end of the release protocol, CGRP is extracted from the cultures and total content measured using RIA.

APE1 [8] = assay: APE1 expression (immunoblotting) after siRNA; format: cell-based, rat; conditions: 100 nM siRNA
Experimental: Small interfering RNAs to APE1 (APE1siRNA) and scrambled siRNA (SCsiRNA) controls were used to decrease APE1 protein expression in sensory neuronal cell cultures and as controls, respectively, as described previously (Vasko et al., 2005, Jiang et al., 2008a). On day 3 in culture, the growth media was replaced with 0.5 ml of Opti-MEM 1 media containing 100 nM of APE1siRNA (5′-[…]-3′ (SEQ ID NO:1)) or SCsiRNA (5′-[…]-3′(SEQ ID NO:2)); (Vasko et al., 2005)) and 10 μl of the transfecting reagent, Neuroporter. On the next day, 0.5 ml of the growth media without antibiotics was added to each well, and after an additional 24 hours the media containing siRNA was replaced with normal growth media.
Tissues or cells were harvested, lysed in RIPA buffer (Santa Cruz Biotechnology; Santa Cruz, Calif., USA), sonicated, and cleared of cellular debris by centrifuging at 4000 RPM for 2 minutes. Protein was quantified using Lowry assay, and electrophoresed in a 12% SDS-polyacrylamide gel. […] Antibody binding was detected following appropriate secondary antibody methods using chemiluminescence. The density of the bands was measured using Quantity One software from Bio-Rad (Hercules, Calif.) and data expressed as density normalized to vinculin.

T1 sequence (P27695 whole entry, species assumed): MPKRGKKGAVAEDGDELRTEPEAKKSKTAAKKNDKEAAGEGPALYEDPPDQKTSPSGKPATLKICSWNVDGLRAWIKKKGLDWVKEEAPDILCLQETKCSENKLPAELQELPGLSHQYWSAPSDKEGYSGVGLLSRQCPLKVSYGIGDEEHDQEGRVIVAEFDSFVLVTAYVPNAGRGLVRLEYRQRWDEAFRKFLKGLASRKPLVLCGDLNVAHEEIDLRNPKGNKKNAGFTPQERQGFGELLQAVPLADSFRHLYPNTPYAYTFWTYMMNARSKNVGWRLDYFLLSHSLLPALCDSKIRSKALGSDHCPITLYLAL

Compound: CCC/C(=C\C1=C(OC)C(=O)c2ccccc2C1=O)C(=O)N(CC)CC [APX2009, (2E)-2-[(3-methoxy-1,4-dioxo-1,4-dihydronaphthalen-2-yl)methylidene]-N,N-diethylpentanamide]
- CAF intensity and area in 3D spheroids (CAF19 cells): not significantly affected
- tumor intensity and area in 3D spheroids [1]: statistical differences were observed for the tumor alone or tumor co-cultured with CAFs
- APE1 repair (endonuclease) activity (APE1 [2]): stimulation of APE1 repair activity
- pIC50 (APE1 [3]): 6.00
- effect on cisplatin-induced cell death [4]: blocked
- protection from oxaliplatin-induced cell killing ([4]; 10 or 20 μM, 72-hour treatment, oxaliplatin 24 hours): protected the sensory neuronal cultures from cell killing
- cell death / cell viability, drug alone ([4]; 24 hours, E3330 10, 20 or 40 μM, APX2009 various concentrations): did not result in a significant reduction in cell viability
- pIC50 (NFκB): 5.15
- half-life [5]: 2.88 h
- half-life increase, P450 metabolism analysis (human microsomes): 8.7 fold
- half-life (Pharmacokinetics (PK)): 25.8 h
- half-life increase compared to E3330 (Pharmacokinetics (PK)): ~7 fold
- effect on cisplatin-induced pH2AX levels (DNA damage) [6]: significantly reduced the levels of pH2AX
- phosphorylation of H2AX after oxaliplatin ([6]; 20 μM, 24 and 48 hr treatments of 30 μM oxaliplatin): significantly reduced the phosphorylation of H2AX
- effect on cisplatin-induced reduction in capsaicin-evoked CGRP release ([7]; 10 μM): did not prevent the cisplatin-induced reduction in release
- effect on oxaliplatin-induced decrease in CGRP release ([7]; 48 hours prior to and throughout exposure to oxaliplatin for 24 hours): prevented the oxaliplatin-induced decrease in CGRP release
- basal (resting) release or release of CGRP stimulated by 30 nM capsaicin, drug alone ([7]; 72 hours, E3330 20 μM, APX2009 10 or 20 μM, compared to untreated cells): no significant change

Compound: CCC/C(=C\C1=C(OC)C(=O)c2ccccc2C1=O)C(=O)N(C)C [APX2007, (2E)-2-[(3-methoxy-1,4-dioxo-1,4-dihydronapthalen-2-yl)methylidene]-N,N-dimethylpentanamide]
- APE1 repair (endonuclease) activity (APE1 [2]): no effect
- pIC50 (APE1 [3]): 5.70
- effect on cisplatin-induced cell death [4]: did not attenuate the cisplatin-induced cell death
- cell viability, drug alone ([4]; 40 μM, 24 hours): significant reduction in cell viability
- cell death, drug alone ([4]; 20 or 40 μM, 72 hours (data not shown)): significant increase in cell death
- pIC50 (NFκB): 5.15
- effect on cisplatin-induced pH2AX levels (DNA damage) [6]: neither APX2007 nor APX2032 (20 μM) altered the ability of cisplatin to produce DNA damage
- effect on cisplatin-induced reduction in capsaicin-evoked CGRP release ([7]; 10 μM): did not prevent the cisplatin-induced reduction in release
- CGRP release, drug alone ([7]; 10 μM, 72 hours): did not affect CGRP release
- capsaicin-stimulated release of CGRP, drug alone ([7]; 20 μM, 72 hours): significant increase in capsaicin-stimulated release

Compound: APE1siRNA: Small interfering RNA to APE1, 5′-GUCUGGUAAGACUGGAGUACC-3′ (SEQ ID NO:1) (chemistry not given here)
- APE1 expression relative to wildtype expression (APE1 [8]): ~20%
